Results: patent US20260294922A1, “Inhibitors of JUN N-Terminal Kinases (JNK1, JNK2, and/or JNK3) and Mitogen-Activated Protein Kinases (MAPK8, MAPK9, and/or MAPK10) and Methods of Using Same” (Baylor College of Medicine, priority 2023, published 2026)
Several values for one entry are separate records, joined by “and”; a condition that tells them apart may be missing. Equal entries are not always repeated. Entries after “also recorded” stand apart in the source; their conditions may differ. Blank lines part the entries; values can stand above or below the compound they belong to.

Tests used:
HepG2 cells = test: HepG2 cell viability (ATP consumption); conditions: CDD-2575 25 μM; CDD-2728, CDD-2624 up to 75
Description: This assay reflects cell viability. […] To determine if the responses observed in endometriotic epithelial cells and endometriotic stromal cell cultures were cytotoxic, cell viability was performed in HepG2 cells.

[1] = Plasma ALT and AST after oral administration; format: in vivo, mouse; conditions: 24 h post-dose, individual mice 1-4
[2] = Pharmacokinetics after oral administration in mice; format: in vivo; conditions: mouse, 50 mg/kg, plasma
Excerpt: (§1) Based on stability and estimated half-life of compounds exposed to liver microsome in vitro, CDD-2728 was selected for PK evaluation.

[3] = Plasma ALT and AST after intraperitoneal administration; format: in vivo, mouse; conditions: 24 h post-dose, individual mice 1-3
CLK3 = target: T1, CLK3 (Homo sapiens, UniProt P49761); test: ThermoFisher SelectScreen, CLK3; format: binding
T1 construct: purchased ThermoFisher (SelectScreen, outsourced service)

[4] = Pharmacokinetics after intraperitoneal administration in mice; format: in vivo; conditions: mouse, ip, 50 mg/kg, plasma
Excerpt: as §1

ERK2 = target: T2, ERK2 (Homo sapiens, UniProt P28482); test: ThermoFisher SelectScreen, ERK2; format: binding
T2 construct: purchased ThermoFisher (SelectScreen, outsourced service)

ERK1 = target: T3, ERK1 (Homo sapiens, UniProt P27361); test: ThermoFisher SelectScreen, ERK1; format: binding
T3 construct: purchased ThermoFisher (SelectScreen, outsourced service)

[5] = tested on: human endometriotic stromal cells (patient 143); test: IL-1β-stimulated pro-inflammatory gene expression in primary endometriotic stromal cells, patient 143; format: cell-based; conditions: patient 143, relative to CDD-939
Excerpt: Similar to patient “50”, lower concentrations of CDD-2728 were required to reduce the proinflammatory response of IL-1β in stromal cells on these measured genes than in 12Z epithelial cells.
To confirm and further support the results described herein, endometriotic stromal cell cultures were established from a second patient. For compliance purposes, this set of cell culture results are identified as Eosis143. These are stromal cells obtained from the lining of an ovarian endometrioma cyst wall.

[6] = tested on: 12Z endometriotic epithelial cells; test: IL-1β-stimulated pro-inflammatory gene expression (qPCR) in 12Z cells; format: cell-based, human; conditions: relative to bentamapimod
Excerpt: These studies indicate that NanoBRET assays are an innovative technical platform to measure target engagement of CDD JNK inhibitors with the target JNK1, JNK2 or JNK3. As further evidence that JNK inhibitors address disease-relevant endpoints, biological responses of JNK inhibitors are provided herein, as measured in target tissue cellular models. 12Z immortalized endometriotic epithelial cells and patient-derived endometriotic stromal cells have been cultured with reference compound bentamapimod, CDD-2628, and CDD-2728. To exemplify the effects of CDD-2628 and CDD-2728 in the endometrial cell cultures, gene expression was measured using qPCR (expressed as fold-change relative to GAPDH, a housekeeping gene that is not affected by culture treatment effects) that reflect synthesis of inflammatory lipids (PTGS2), transformation of cells to a more migration and invasive potential (MMP-3) and chemoattractant cytokines to recruit pro-inflammatory immune cells (IL-6, IL-8).
In the culture systems employed in FIGS. 12A-12J, FIGS. 13A-13B, FIGS. 14A-14H, FIGS. 15A-15H, and FIGS. 16A-16F, the treatment of cells with IL-1β is used to mimic the peritoneal environment where IL-1β is most frequently measured at higher concentrations in patients with endometriosis (0.1 ng/mL-1 ng/mL) than in unaffected women (<0.01 ng/mL). The use of IL-1β to mimic the pro-inflammatory environment is a common method in cellular assays for endometriosis research. Although the concentrations of IL-1β in these cell cultures are higher than measured in peritoneal fluid, there are multiple other pro-inflammatory cytokines in peritoneal fluid that contribute to the pro-inflammatory environment.
Specifically, 12Z cells were plated at a density of 1×10^5 cells/well in a 12-well tissue culture plate, serum-starved overnight (17-18 h), pre-treated with vehicle (DMSO) or JNK inhibitor for 30 minutes, then stimulated with 10 ng/ml IL-1β in the presence or absence of the JNK inhibitors for 6 hours. After the 6-hour treatment, mRNA was extracted from the cells using the Qiagen RNEasy mini isolation kit and […] of mRNA was reverse transcribed into cDNA using the qScript cDNA Supermix (Quanta Biosciences). cDNA was amplified using SYBR Green Master Mix (Applied Biosystems) with quantitative Real Time PCR (BioRad CFX) using pre-designed and validated primers specific for genes encoding IL6, IL8, PTGS2/COX2, and MMP3 (BioRad). Relative quantification of these specific genes was calculated by the ΔΔCt method, normalizing their abundance relative to the internal housekeeping gene, GAPDH, followed by quantification relative to the vehicle-treated cells. Statistical analyses and visualizations were performed using a One Way ANOVA with a Tukey's multiple comparison post-hoc test on GraphPad Prism version 9.

endometriotic lesions = test: Immunofluorescent staining of endometriotic lesions from treated mice; format: in vivo; conditions: 14 days, intraperitoneal
Excerpt: FIG. 23 depicts immunofluorescent staining of sections of remaining endometriotic lesions following 14 days of treatment with CDD-2728 or with a vehicle solution (i.e., Captisol) by intraperitoneal administration.
This illustrates a common mechanism of JNK-I from the chemical series of the disclosure and their ability to target endometriotic lesions, and the innate immune cells that drive an inflammatory response within the lesions.

12Z cells = test: Phosphorylation of Jun and JNK in IL-1β-treated 12Z cells; format: cell-based, human
480 kinases = test: Eurofins KINOMEscan selectivity profile; format: binding; conditions: Bentamapimod and Tanzisertib at 1 μM

T3 sequence (P27361 whole entry): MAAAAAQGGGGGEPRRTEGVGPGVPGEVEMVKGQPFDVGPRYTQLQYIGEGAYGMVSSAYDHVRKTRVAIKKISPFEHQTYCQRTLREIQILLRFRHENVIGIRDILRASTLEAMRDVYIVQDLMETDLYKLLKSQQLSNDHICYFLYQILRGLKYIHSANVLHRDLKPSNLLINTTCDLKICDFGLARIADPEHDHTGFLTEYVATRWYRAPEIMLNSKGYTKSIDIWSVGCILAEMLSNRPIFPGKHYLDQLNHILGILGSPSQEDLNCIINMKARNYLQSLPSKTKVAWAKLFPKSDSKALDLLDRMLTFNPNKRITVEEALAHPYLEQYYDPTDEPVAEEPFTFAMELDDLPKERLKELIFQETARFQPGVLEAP
T1 sequence (P49761 whole entry): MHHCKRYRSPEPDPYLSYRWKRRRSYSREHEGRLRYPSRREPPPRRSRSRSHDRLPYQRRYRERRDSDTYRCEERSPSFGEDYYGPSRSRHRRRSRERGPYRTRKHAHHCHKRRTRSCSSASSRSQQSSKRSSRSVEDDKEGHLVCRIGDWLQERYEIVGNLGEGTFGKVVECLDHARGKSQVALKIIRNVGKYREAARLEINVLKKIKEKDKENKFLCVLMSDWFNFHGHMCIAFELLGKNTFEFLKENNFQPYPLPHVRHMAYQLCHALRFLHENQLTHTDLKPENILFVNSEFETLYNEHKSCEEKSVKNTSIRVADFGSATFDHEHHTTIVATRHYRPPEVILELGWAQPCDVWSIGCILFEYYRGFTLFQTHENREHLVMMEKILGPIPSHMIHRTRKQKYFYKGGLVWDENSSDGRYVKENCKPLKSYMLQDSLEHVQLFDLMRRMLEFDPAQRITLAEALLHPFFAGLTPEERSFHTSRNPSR
T2 sequence (P28482 whole entry): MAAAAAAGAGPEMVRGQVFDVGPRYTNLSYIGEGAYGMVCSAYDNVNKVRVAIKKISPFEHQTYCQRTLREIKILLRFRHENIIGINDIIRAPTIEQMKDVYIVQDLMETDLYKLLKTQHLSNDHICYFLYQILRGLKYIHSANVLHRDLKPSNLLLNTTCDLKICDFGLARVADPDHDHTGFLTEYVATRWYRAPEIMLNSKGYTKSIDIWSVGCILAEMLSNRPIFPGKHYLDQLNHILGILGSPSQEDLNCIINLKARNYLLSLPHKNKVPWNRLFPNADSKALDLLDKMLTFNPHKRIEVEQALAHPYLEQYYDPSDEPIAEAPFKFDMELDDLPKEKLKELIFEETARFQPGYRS

AUC(0-inf) [2]: 3.03 ± 0.98 µM·h
AUC(0-t) [2]: 2.95 ± 0.95 µM·h
CL/F [2]: 650 mL/min/kg
Cmax [2]: 1510 ± 530 nM
Tmax [2]: 37.8 ± 15 min
half-life [2]: 88.8 ± 19.2 min
MRT last ([2]; read-out: MRT0-t): 1.7 ± 0.34 h
MRT inf ([2]; read-out: MRT0-∞): 1.91 ± 0.44 h
Kd (CLK3): 1020 nM
AUC(0-inf) [4]: 8.03 ± 2.52 µM·h
AUC(0-t) [4]: 5.7 ± 2.53 µM·h
CL/F [4]: 245 mL/min/kg
Cmax [4]: 440 ± 190 nM
Tmax [4]: 3 ± 1.15 h
MRT last ([4]; read-out: MRT0-t): 8.57 ± 1.33 h
MRT inf ([4]; read-out: MRT0-∞): 20.5 ± 13 h
half-life ([4]; read-out: T1/2 (converted)): 854 ± 535 min
half-life ([4]; read-out: half-life, injected into the peritoneal cavity (converted)): 840 min
Kd (ERK2): 534 nM
Kd (ERK1): 909 nM
inhibition of ERK1/2 (ERK1; ERK1/2, in words): only modest inhibition of ERK1/2
SMILES: CN(C)C(=O)c1cc(NC(=O)c2cc3c(-c4cnc5[nH]ccc5c4)cccc3s2)ccc1O [CDD-2728, N-(3-(dimethylcarbamoyl)-4-hydroxyphenyl)-4-(1H-pyrrolo[2,3-b]pyridin-5-yl)benzo[b]thiophene-2-carboxamide]
effect on HepG2 cell viability / ATP consumption (HepG2 cells): tolerated (up to 75 μM); also recorded: neither CDD-2624 or CDD-2728 had significant effects on ATP consumption
ALT [1]: 43.49 IU/L and 21.92 IU/L and 36.24 IU/L and 30.94 IU/L
AST [1]: 69.13 IU/L and 76.02 IU/L and 61.79 IU/L and 41.64 IU/L
ALT [3]: 87.34 IU/L and 29.17 IU/L and 23.07 IU/L
AST [3]: 78.94 IU/L and 38.37 IU/L and 35.80 IU/L
inhibition of IL-6, IL-8, MMP-3 and PTGS2 gene expression [5]: at lower doses than was required for inhibition of expression of these genes by CDD-939; also recorded: superior to bentamapimod in efficacy of suppression and potency
IL-6 expression [6]: equally effective
IL-8 expression [6]: more potent inhibitors of IL-8 expression than bentamapimod; also recorded: effectively suppressed IL-8 production
MMP-3 expression [6]: more potent than CDD-939 at inhibiting MMP-3 expression; also recorded: more effective than bentamapimod
PTGS2 expression [6]: more effective than bentamapimod
CD31 (endothelial cells, angiogenesis) (endometriotic lesions): reduces the presence of cells corresponding to leukocytes, platelets, and endothelial cells (CD31); also recorded: angiogenesis (anti-CD31 antibody)
macrophage infiltration (F4/80) (endometriotic lesions): decreases infiltration of endometriotic lesions by macrophages (F4/80)
proliferation of lesions (Ki67) (endometriotic lesions): reduced rates of proliferative cell growth; also recorded: reduced cellular proliferation
phosphorylation of JNK1 or JNK2 (12Z cells): undetectable changes
phosphorylation of Jun relative to total Jun (12Z cells; relative to bentamapimod): superior efficacy

SMILES: CNCc1ccc(NC(=O)c2ccn3ncc(-c4cnc5[nH]ccc5c4)c3c2)cc1 [CDD-2346, N-(4-((methylamino)methyl)phenyl)-3-(1H-pyrrolo[2,3-b]pyridin-5-yl)pyrazolo[1,5-a]pyridine-5-carboxamide]
KINOMEscan selectivity / inhibition (480 kinases): selectivity of CDD-2346 was inadequate
